Source: article PMC6934184, “Selective DNA-PKcs inhibition extends the therapeutic index of localized radiotherapy and chemotherapy” (The Journal of Clinical Investigation, 2019)

Biological target: T1, EPHA8 (Homo sapiens, UniProt P29322)
T1 construct: purchased Thermo Fisher Scientific (Life Technologies) SelectScreen
Assay: SelectScreen Z'LYTE
Type: biochemical
In short: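 NU5455 was profiled across the SelectScreen Broad panel of kinase activity and binding assays. Z'LYTE reactions such as CSF1R ran at apparent Km ATP, while the Adapta CAMK1 assay used ATP listed as 10. Values are given as percent.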

T1 sequence (P29322 28-1005): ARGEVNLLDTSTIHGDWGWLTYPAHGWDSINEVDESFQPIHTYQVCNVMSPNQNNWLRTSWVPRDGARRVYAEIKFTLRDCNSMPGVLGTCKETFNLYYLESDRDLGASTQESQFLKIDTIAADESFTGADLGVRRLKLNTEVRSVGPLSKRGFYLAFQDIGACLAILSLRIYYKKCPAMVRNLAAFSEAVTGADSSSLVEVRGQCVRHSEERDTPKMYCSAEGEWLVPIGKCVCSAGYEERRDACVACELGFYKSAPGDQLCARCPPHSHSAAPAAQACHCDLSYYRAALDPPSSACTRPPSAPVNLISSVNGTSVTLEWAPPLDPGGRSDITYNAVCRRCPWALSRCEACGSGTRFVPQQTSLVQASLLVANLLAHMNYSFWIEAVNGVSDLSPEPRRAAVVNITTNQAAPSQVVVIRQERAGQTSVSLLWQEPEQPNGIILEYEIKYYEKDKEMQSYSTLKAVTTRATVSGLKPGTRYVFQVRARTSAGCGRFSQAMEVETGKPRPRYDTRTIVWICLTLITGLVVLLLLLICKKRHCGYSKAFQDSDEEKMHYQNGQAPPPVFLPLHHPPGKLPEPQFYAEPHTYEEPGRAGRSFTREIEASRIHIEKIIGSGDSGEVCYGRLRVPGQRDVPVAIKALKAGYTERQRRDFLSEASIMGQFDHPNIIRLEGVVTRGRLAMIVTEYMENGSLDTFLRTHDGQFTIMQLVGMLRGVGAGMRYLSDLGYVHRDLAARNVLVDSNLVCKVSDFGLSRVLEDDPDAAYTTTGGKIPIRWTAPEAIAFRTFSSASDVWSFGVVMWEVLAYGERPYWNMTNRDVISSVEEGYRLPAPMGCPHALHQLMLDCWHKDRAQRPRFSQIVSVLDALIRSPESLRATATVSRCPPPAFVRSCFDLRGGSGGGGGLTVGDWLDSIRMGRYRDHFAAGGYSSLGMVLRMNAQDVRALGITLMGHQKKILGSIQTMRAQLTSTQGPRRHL

`CN(C(=O)CN1CCOCC1)c1ccc2sc3c(-c4cccc5c(=O)cc(N6CC7CCC(C6)O7)oc45)cccc3c2c1` [NU5455] was tested, and the inhibition at 1 µM was -13.8%.
